Assay [1] has as its target T1, human orexin-1 receptor (Homo sapiens, UniProt O43613).
T1 construct: expressed in transfected cells; host or cells: CHO (Chinese hamster ovary) cells, grown under G418 selection
T1 sequence (O43613 1-425): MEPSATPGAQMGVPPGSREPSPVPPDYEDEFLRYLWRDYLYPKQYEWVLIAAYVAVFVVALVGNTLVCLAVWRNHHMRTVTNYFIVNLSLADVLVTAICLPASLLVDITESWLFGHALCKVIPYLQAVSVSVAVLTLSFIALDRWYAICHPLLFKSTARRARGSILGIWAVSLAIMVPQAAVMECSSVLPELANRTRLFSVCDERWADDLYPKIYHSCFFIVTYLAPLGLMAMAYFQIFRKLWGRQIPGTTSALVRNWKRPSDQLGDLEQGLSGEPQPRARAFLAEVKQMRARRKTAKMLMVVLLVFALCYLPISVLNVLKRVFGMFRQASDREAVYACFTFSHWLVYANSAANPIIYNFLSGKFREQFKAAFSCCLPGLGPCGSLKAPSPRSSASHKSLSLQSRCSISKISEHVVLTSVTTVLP
The assay is described as follows: Intracellular calcium measurements (FLIPR), orexin receptor antagonistic activity, OX1. Format: cell-based. To be noted: CHO cells expressing human orexin-1 receptor, 10 nM orexin-A as agonist. On the procedure: (§1) The orexin receptor antagonistic activity of the compounds of formula (I) is determined in accordance with the following experimental method.
(§2) Intracellular Calcium Measurements:
(§3) Chinese hamster ovary (CHO) cells expressing the human orexin-1 receptor and the human orexin-2 receptor, respectively, are grown in culture medium (Ham F-12 with L-Glutamine) containing 300 μg/ml G418, 100 U/ml penicillin, 100 μg/ml streptomycin and 10% inactivated fetal calf serum (FCS). The cells are seeded at 80,000 cells/well into 96-well black clear bottom sterile plates (Costar) which have been precoated with 1% gelatine in Hanks' Balanced Salt Solution (HBSS). All reagents are from Gibco BRL. The seeded plates are incubated overnight at 37° C. in 5% CO2.
(§4) Human orexin-A as an agonist is prepared as 1 mM stock solution in MeOH: water (1:1), diluted in HBSS containing 0.1% bovine serum albumin (BSA) and 2 mM HEPES for use in the assay at a final concentration of 10 nM.
(§5) Antagonists are prepared as 10 mM stock solution in DMSO, then diluted in 96-well plates, first in DMSO, then in HBSS containing 0.1% bovine serum albumin (BSA) and 2 mM HEPES.
(§6) On the day of the assay, 100 μl of loading medium (HBSS containing 1% FCS, 2 mM HEPES, 5 mM probenecid (Sigma) and 3 μM of the fluorescent calcium indicator fluo-3 AM (1 mM stock solution in DMSO with 10% pluronic acid) (Molecular Probes) is added to each well.
(§7) The 96-well plates are incubated for 60 min at 37° C. in 5% CO2. The loading solution is then aspirated and cells are washed 3 times with 200 μl HBSS containing 2.5 mM probenecid, 0.1% BSA, 2 mM HEPES. 100 μl of that same buffer is left in each well.
(§8) Within the Fluorescent Imaging Plate Reader (FLIPR, Molecular Devices), antagonists are added to the plate in a volume of 50 μl, incubated for 20 min and finally 100 μl of agonist is added. Fluorescence is measured for each well at 1 second intervals, and the height of each fluorescence peak is compared to the height of the fluorescence peak induced by 10 nM orexin-A with buffer in place of antagonist.
For orientation: A change in cytosolic calcium serves as a functional read-out for many receptors and channels.

In assay [2] the target is T2, human orexin-2 receptor (Homo sapiens, UniProt O43614).
T2 construct: expressed in transfected cells; host or cells: CHO (Chinese hamster ovary) cells, grown under G418 selection
T2 sequence (O43614 1-444): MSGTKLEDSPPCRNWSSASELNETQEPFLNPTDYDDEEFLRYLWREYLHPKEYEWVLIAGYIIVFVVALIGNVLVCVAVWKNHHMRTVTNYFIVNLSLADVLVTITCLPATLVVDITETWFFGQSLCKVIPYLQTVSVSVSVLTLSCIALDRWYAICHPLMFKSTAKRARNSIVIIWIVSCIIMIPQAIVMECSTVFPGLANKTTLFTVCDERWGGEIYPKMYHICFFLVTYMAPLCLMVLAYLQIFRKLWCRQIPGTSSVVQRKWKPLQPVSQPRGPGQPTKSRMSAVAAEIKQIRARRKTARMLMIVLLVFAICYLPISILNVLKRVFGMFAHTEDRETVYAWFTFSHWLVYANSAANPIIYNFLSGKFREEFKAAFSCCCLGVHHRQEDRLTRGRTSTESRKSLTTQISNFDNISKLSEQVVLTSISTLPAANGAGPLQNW
The assay is described as follows: Intracellular calcium measurements (FLIPR), orexin receptor antagonistic activity, OX2. The format is cell-based. Conditions: CHO cells expressing human orexin-2 receptor, 10 nM orexin-A as agonist. On the procedure:
as §1, §2, §3, §4, §5, §6, §7, §8

The term IC50 denotes the midpoint of a concentration-inhibition curve. As for `Cc1ccc(C(=O)N2C[C@H]3C[C@H]3[C@H]2CNC(=O)c2cccc3c2OCCO3)c(C#CC2CC2)c1` (racemic) [Example 379, 2,3-Dihydro-benzo[1,4]dioxine-5-carboxylic acid [(1R*,2S*,5S*)-3-(2-cyclopropylethynyl-4-methyl-benzoyl)-3-aza-bicyclo[3.1.0]hex-2-ylmethyl]-amide], the figures for the IC50 in assay [1] and in assay [2] were 373 nM and 61 nM, respectively.
As for `Cc1ccc(C(=O)N2C[C@H]3C[C@H]3[C@H]2CNC(=O)c2c3c(cc4c2OCC4)OCC3)c(-c2cccc(F)c2)c1` (relative stereo) [Compound 318], the IC50 in assay [1] worked out at 196 nM; in assay [2], 114 nM.
On to `Cc1nc2sccn2c1C(=O)NC[C@@H]1[C@@H]2C[C@@H]2CN1S(=O)(=O)c1ccccc1OC(F)(F)F` (relative stereo) [Example 3, 6-methyl-imidazo[2,1-b]thiazole-5-carboxylic acid [(1R*,2S*,5S*)-3-(2-trifluoromethoxy-benzenesulfonyl)-3-aza-bicyclo[3.1.0]hex-2-ylmethyl]-amide], for which the results for the IC50 in assay [1] and in assay [2] were 158 nM and 348 nM, respectively.
The like results for `Cc1nc(C(=O)N2C[C@H]3C[C@H]3[C@H]2CNC(=O)c2ccc(F)cc2)c(-c2cccc(F)c2)s1` (relative stereo) [Example 8, 4-fluoro-N-{[(1R*,2S*,5S*)-3-[5-(3-fluoro-phenyl)-2-methyl-thiazole-4-carbonyl]-3-aza-bicyclo[3.1.0]hex-2-ylmethyl}-benzamide] were, in that order, 994 nM and 96 nM.
The like results for `CCc1ccc(-c2sc(C)nc2C(=O)N2C[C@H]3C[C@H]3[C@H]2CNC(=O)c2cccc3occc23)cc1` (relative stereo) [Example 16, benzofuran-4-carboxylic acid {(1R*,2S*,5S*)-3-[5-(4-ethyl-phenyl}2-methyl-thiazole-4-carbonyl]-3-aza-bicyclo[3.1.0]hex-2-ylmethyl}-amide] were, in that order, 143 nM and 33 nM.
The like results for `Nc1nc(-c2ccccc2C(=O)N2C[C@H]3C[C@H]3[C@H]2CNC(=O)c2cccc3occc23)cs1` (relative stereo) [Example 30, benzofuran-4-carboxylic acid {(1R*,2S*,5S*)-3-[2-(2-amino-thiazol-4-yl)benzoyl]-3-aza-bicyclo[3.1.0]hex-2-ylmethyl}-amide] were, in that order, 1210 nM and 32 nM.
Turning to `O=C(NC[C@@H]1[C@@H]2C[C@@H]2CN1C(=O)c1cccc2c1-c1ccccc1C2)c1cccc2occc12` (relative stereo) [Example 31, benzofuran-4-carboxylic acid [(1R*,2S*,5S*)-3-(9H-fluorene-4-carbonyl)-3-aza-bicyclo[3.1.0]hex-2-ylmethyl]-amide], the IC50 in assay [1] was found to be 240 nM; in assay [2] it was 51 nM.
The like results for `O=C(NC[C@@H]1[C@@H]2C[C@@H]2CN1C(=O)c1nccnc1-c1ccccc1)c1cccc2occc12` (relative stereo) [Example 32, benzofuran-4-carboxylic acid [(1R*,2S*,5S*)-3-(3-phenyl-pyrazine-2-carbonyl)-3-aza-bicyclo[3.1.0]hex-2-ylmethyl]-amide] were, in that order, 2960 nM and 91 nM.
`COc1ccc(-c2ocnc2C(=O)N2C[C@H]3C[C@H]3[C@H]2CNC(=O)c2cccc3occc23)cc1` (relative stereo) [Example 33, benzofuran-4-carboxylic acid {(1R*,2S*,5S*)-3-[5-(4-methoxy-phenyl)-oxazole-4-carbonyl]-3-aza-bicyclo[3.1.0]hex-2-ylmethyl}-amide]: the figures for the IC50 in assay [1] and in assay [2] were 2170 nM and 94 nM, respectively.
The like results for `O=C(NC[C@@H]1[C@@H]2C[C@@H]2CN1C(=O)c1ccccc1-c1ccc(Cl)cc1)c1cccc2occc12` (relative stereo) [Example 42, benzofuran-4-carboxylic acid [(1R*,2S*,5S*)-3-(4′-chloro-biphenyl-2-carbonyl)-3-aza-bicyclo[3.1.0]hex-2-ylmethyl]-amide] were, in that order, 237 nM and 50 nM.
With `Cc1nc(C(=O)N2C[C@H]3C[C@H]3[C@H]2CNc2cnc3cc(F)c(F)cc3n2)c(-c2ccc(F)cc2)s1` (relative stereo) [Example 60, {(1R*,2S*,5S*)-2-[(6,7-difluoro-quinoxalin-2-ylamino)-methyl]-3-aza-bicyclo[3.1.0]hex-3-yl}-[5-(4-fluoro-phenyl)-2-methyl-thiazol-4-yl]-methanone], the IC50 in assay [1] was 596 nM; in assay [2] it was 76 nM.
The like results for `O=C(c1ccccc1-c1ccccc1)N1C[C@H]2C[C@H]2[C@H]1CNc1ncc(Br)cn1` (relative stereo) [Example 64, biphenyl-2-yl-{(1R*,2S*,5S*)-2-[(5-bromo-pyrimidin-2-ylamino)methyl]-3-aza-bicyclo[3.1.0]hex-3-yl}-methanone] were, in that order, 162 nM and 242 nM.
For `Cc1cccc(-c2sc(C)nc2C(=O)N2C[C@H]3C[C@H]3[C@H]2CNC(=O)c2sc(Br)nc2C)c1` (relative stereo) [Example 74, 2-bromo-4-methyl-thiazole-5-carboxylic acid [(1R*,2S*,5S*)-3-(2-methyl-5-m-tolyl-thiazole-4-carbonyl)-3-aza-bicyclo[3.1.0]hex-2-ylmethyl]-amide], the values for the IC50 in assay [1] and in assay [2] were 99 nM and 16 nM, respectively.
As to `Cc1cccc(-c2sc(C)nc2C(=O)N2C[C@H]3C[C@H]3[C@H]2CNC(=O)c2sc(C)nc2C)c1` (relative stereo) [Example 82, 2,4-dimethyl-thiazole-5-carboxylic acid [(1R*,2S*,5S*)-3-(2-methyl-5-m-tolyl-thiazole-4-carbonyl)-3-aza-bicyclo[3.1.0]hex-2-ylmethyl]-amide], the IC50 is 864 nM in assay [1] and 50 nM in assay [2].
With `Cc1cccc(-c2sc(C)nc2C(=O)N2C[C@H]3C[C@H]3[C@H]2CNC(=O)c2cnc(CC(C)C)c(C)c2)c1` (relative stereo) [Example 100, 6-isobutyl-5-methyl-N-[(1R*,2S*,5S*)-3-(2-methyl-5-m-tolyl-thiazole-4-carbonyl)-3-aza-bicyclo[3.1.0]hex-2-ylmethyl]-nicotinamide], the IC50 turned out to be 1300 nM in assay [1] and 80 nM in assay [2].
As to `Cc1cccc(-c2sc(C)nc2C(=O)N2C[C@H]3C[C@H]3[C@H]2CNC(=O)c2cccc3c2OC(C)(C)C3)c1` (relative stereo) [Example 108, 2,2-Dimethyl-2,3-dihydro-benzofuran-7-carboxylic acid [(1R*,2S*,5S*)-3-(2-methyl-5-m-tolyl-thiazole-4-carbonyl)-3-aza-bicyclo[3.1.0]hex-2-ylmethyl]-amide], the 50% inhibitory concentration (IC50) in assay [1] amounted to 131 nM; in assay [2], 101 nM.
The like results for `Cc1cccc(-c2sc(C)nc2C(=O)N2C[C@H]3C[C@H]3[C@H]2CNC(=O)c2cn(C)c3ccccc23)c1` (relative stereo) [Example 114, 1-Methyl-1H-indole-3-carboxylic acid [(1R*,2S*,5S*)-3-(2-methyl-5-m-tolyl-thiazole-4-carbonyl)-3-aza-bicyclo[3.1.0]hex-2-ylmethyl]-amide] were, in that order, 93 nM and 124 nM.

For the origin of these results see patent publication US20100016401A1, “3-AZA-BICYCLO[3.1.0]HEXANE DERIVATIVES” (Actelion Phamaceuticals Ltd., priority 2006, published 2010).
